SMILES strings stand for the structures.

Format in all cases: functional
The test system of assay [1] is Amaranthus blitum subsp. oleraceus. The assay can be described thus: Herbicidal activity against Amaranthus blitum subsp. oleraceus assessed as killing at 2.5 g/a at 25 degC measured after 2 weeks.
Assay [2] has as its system Schoenoplectiella juncoides. The assay can be described thus: Herbicidal activity against Schoenoplectiella juncoides assessed as killing at 1 g/a at 25 degC measured after 3 weeks.
Assay [3] deals with Pontederia vaginalis. In words: Herbicidal activity against Monochoria vaginalis assessed as killing at 1 g/a at 25 degC measured after 3 weeks.
In assay [4] the test system is Digitaria ciliaris. The assay can be described thus: Herbicidal activity against Digitaria ciliaris assessed as killing at 10 g/a at 25 degC measured after 2 weeks.
The test system of assay [5] is Amaranthus blitum subsp. oleraceus. The assay can be described thus: Herbicidal activity against Amaranthus blitum subsp. oleraceus assessed as killing at 10 g/a at 25 degC measured after 2 weeks.
For assay [6], the system named is Schoenoplectiella juncoides. In words: Herbicidal activity against Schoenoplectiella juncoides assessed as killing at 10 g/a at 25 degC measured after 3 weeks.
For assay [7], the system named is Poa annua. The assay can be described thus: Herbicidal activity against Poa annua assessed as killing at 10 g/a at 25 degC measured after 2 weeks.
Assay [8] has as its system Echinochloa oryzicola. The assay can be described thus: Herbicidal activity against Echinochloa oryzicola assessed as killing at 10 g/a at 25 degC measured after 3 weeks.
Assay [9] relates to Setaria viridis. The assay can be described thus: Herbicidal activity against Setaria viridis (green foxtail) assessed as killing at 10 g/a at 25 degC measured after 2 weeks.
The test system of assay [10] is Cyperus difformis. In words: Herbicidal activity against Cyperus difformis assessed as killing at 10 g/a at 25 degC measured after 3 weeks.
The test system of assay [11] is Kummerowia striata. In words: Herbicidal activity against Kummerowia striata assessed as killing at 10 g/a at 25 degC measured after 2 weeks.
For assay [12], the system named is Setaria viridis. The assay can be described thus: Herbicidal activity against Setaria viridis (green foxtail) assessed as killing at 2.5 g/a at 25 degC measured after 2 weeks.
Assay [13] relates to Cyperus difformis. The assay can be described thus: Herbicidal activity against Cyperus difformis assessed as killing at 1 g/a at 25 degC measured after 3 weeks.
Assay [14] in a line: Herbicidal activity against annual broad-leaf weeds assessed as killing at 10 g/a at 25 degC measured after 3 weeks.
The subject of assay [15] is Stellaria media. In words: Herbicidal activity against Stellaria media assessed as killing at 2.5 g/a at 25 degC measured after 2 weeks.
In assay [16] the test system is Pontederia vaginalis. The assay can be described thus: Herbicidal activity against Monochoria vaginalis assessed as killing at 10 g/a at 25 degC measured after 3 weeks.
The test system of assay [17] is Digitaria ciliaris. The assay can be described thus: Herbicidal activity against Digitaria ciliaris assessed as killing at 2.5 g/a at 25 degC measured after 2 weeks.
The test system of assay [18] is Kummerowia striata. The assay can be described thus: Herbicidal activity against Kummerowia striata assessed as killing at 2.5 g/a at 25 degC measured after 2 weeks.
In assay [19] the test system is Stellaria media. The assay can be described thus: Herbicidal activity against Stellaria media assessed as killing at 10 g/a at 25 degC measured after 2 weeks.
Assay [20] deals with Poa annua. In words: Herbicidal activity against Poa annua assessed as killing at 2.5 g/a at 25 degC measured after 2 weeks.
Assay [21] deals with Echinochloa oryzicola. In words: Herbicidal activity against Echinochloa oryzicola assessed as killing at 1 g/a at 25 degC measured after 3 weeks.
Assay [22] is described as follows: Herbicidal activity against annual broad-leaf weeds assessed as killing at 1 g/a at 25 degC measured after 3 weeks.

Regarding `CCOCCN(C(=O)CCl)C(=C(C)C)c1ccccc1` [PETHOXAMID], the Activity (in assay [1]; in [2]; in the assay on Pontederia vaginalis [3]; in the assay with Digitaria ciliaris [4]; in assay [5]; in [6]) was 100% throughout. Besides, the Activity came out at 100% in the assay with Poa annua [7]; 100% with Echinochloa oryzicola [8]; 100% with Setaria viridis [9]; 100% in the assay with Cyperus difformis [10]; 80% in the assay on Kummerowia striata [11]; 100% in the assay on Setaria viridis [12]. The Activity with Cyperus difformis [13] was determined as 100%; in assay [14], 100%; in the assay on Stellaria media [15], 80%; with Pontederia vaginalis [16], 100%; with Digitaria ciliaris [17], 100%; in the assay with Kummerowia striata [18], 80%. Also, the results for the Activity in the assay on Stellaria media [19], with Poa annua [20] and in the assay with Echinochloa oryzicola [21] were 100%, 80% and 100%, respectively.
As for `CCc1cccc(C)c1N(C(=O)CCl)C(C)COC` (configuration not stated) [METOLACHOR], the Activity in assay [1] is given as 100%; in the assay on Digitaria ciliaris [4], 100%; in assay [5], 80%; in the assay with Poa annua [7], 100%; in the assay with Setaria viridis [9], 100%; with Kummerowia striata [11] it was 80%. For the same compound, the Activity with Setaria viridis [12] stood at 80%; in the assay with Stellaria media [15], 60%; in the assay on Digitaria ciliaris [17], 100%; in the assay on Kummerowia striata [18], 100%; in the assay on Stellaria media [19], 60%; in the assay on Poa annua [20], 80%.
Turning to `CCc1cccc(CC)c1N(COC)C(=O)CCl` [ALACHLOR], the Activity in assay [1] is recorded as 80%; in the assay on Digitaria ciliaris [4], 100%; in assay [5], 100%; with Poa annua [7], 100%; in the assay with Setaria viridis [9] it was 100%; in the assay with Kummerowia striata [11], 80%. Besides, the Activity with Setaria viridis [12] is 80%; in the assay with Stellaria media [15] it was 40%; in the assay on Digitaria ciliaris [17] it was 100%; in the assay with Kummerowia striata [18], 60%; in the assay on Stellaria media [19], 80%; in the assay on Poa annua [20], 80%.
Regarding `COCCN(C(=O)CCl)C(=C(C)C)c1ccccc1`, the Activity in [1] turned out to be 60%; in [2] it was 100%; in the assay with Pontederia vaginalis [3], 100%; in the assay on Digitaria ciliaris [4], 100%; in assay [5], 100%; in assay [6], 100%. The Activity in the assay with Poa annua [7] came to 100%; with Echinochloa oryzicola [8], 100%; with Setaria viridis [9], 100%; with Cyperus difformis [10], 100%; in the assay with Kummerowia striata [11] it was 80%; in the assay on Setaria viridis [12], 80%. The Activity turned out to be 100% in assay [22]; 100% in the assay on Cyperus difformis [13]; 100% in [14]; 60% with Stellaria media [15]; 100% in the assay with Pontederia vaginalis [16]; 100% with Digitaria ciliaris [17]. Moreover, the Activity in the assay on Kummerowia striata [18] worked out at 80%; with Stellaria media [19], 80%; with Poa annua [20], 100%; in the assay on Echinochloa oryzicola [21] it was 100%.
For `CCC=C(c1ccccc1)N(CCOC)C(=O)CCl`, the Activity in assay [2] came out at 0%; in the assay with Pontederia vaginalis [3], 0%; in assay [6], 100%; with Echinochloa oryzicola [8], 100%; in the assay on Cyperus difformis [10], 100%; in [22] it was 0%. The Activity in the assay on Cyperus difformis [13] was 80%; in assay [14], 80%; with Pontederia vaginalis [16] it was 100%; in the assay with Echinochloa oryzicola [21] it was 60%.
`COCCN(C(=O)CCl)C(=C1CCCCC1)c1ccccc1`: the Activity came to 0% in assay [2]; 0% with Pontederia vaginalis [3]; 100% in assay [6]; 100% with Echinochloa oryzicola [8]; 100% in the assay with Cyperus difformis [10]; 60% in assay [22]. Also, the Activity in the assay with Cyperus difformis [13] worked out at 0%; in assay [14], 80%; in the assay on Pontederia vaginalis [16] it was 100%; in the assay with Echinochloa oryzicola [21], 20%.

The record behind these values is ChEMBL document CHEMBL3046648, “Herbicidally Active N-(1-Arylethenyl)-2-chloroacetamides Bearing an Alkyloxyalkyl Moiety” (1991).
